Where “and” joins values, the source holds several entries; their conditions need not be identical. Identical values can stand only once. Like-named read-outs stand apart in the source and are kept apart here.
Tests used:
[1] = tested on: human nasal epithelial cells; details: 10 μM
[2] = tested on: human bronchial epithelial cells; details: 10 μM
[3] = male, cynomolgus monkey, in vivo, 12 h
in vivo = details: male, cynomolgus monkey, Mean Intracellular Compound 1-6 Concentration
RD cells = details: human
[4] = tested on: human bronchial epithelial cells; assay: Triphosphate formation in human bronchial epithelial cells; details: human nasal and bronchial epithelial cells, up to 100 μM
[5] = tested on: human coronavirus alpha-229E; assay: Visual CPE assay, coronavirus alpha-229E in Huh7 cells; format: cell-based; details: Huh-7
Method: (§1) Huh7 cells were seeded in 96-well plates at a concentration that yielded 80-100% confluent monolayers in each well after overnight incubation. Compound 1A was dissolved in DMSO to 10 mg/mL and 8 half-log serial dilutions in test medium (modified Eagle's medium containing 5% fetal bovine serum and […] gentamicin) were prepared with the highest concentration of 50 μg/mL. 100 μL of each concentration were added to 5 test wells on the 96-well plate and 3 wells were infected with test virus in test medium (≤100 CCID50 per well). An equivalent amount of test medium was added to the remaining test wells to assess toxicity to uninfected cells. Six wells were infected to serve as untreated virus controls. Media only was added to 6 wells to serve as cell controls. Plates were incubated at 37° C. in a humidified 5% CO2 atmosphere until cytopathic effect (CPE) was observed microscopically.

SARS-CoV-2 (WA1) = assay: Virus yield reduction assay, SARS-CoV-2 in dNHBE / HAE cells; format: cell-based
Method: The antiviral activity of Compound 1A was next evaluated against SARS-CoV-2 (WA1) using differentiated normal human bronchial epithelial (dNHBE; HAE (human airway epithelial) cells made to order by MatTek Corporation (Ashland, MA).
Cell Culture: dNHBE cells were grown on 6 mm mesh disks and arrived in kits with either 12- or 24-well transwell inserts. During transportation the tissues were stabilized on a sheet of agarose, which was removed upon receipt. One insert was estimated to consist of approximately 1.2×10^6 cells. Kits of cell inserts (EpiAirway™ AIR-100, AIR-112) originated from a single donor, #9831, a healthy, non-smoking person. The cells have unique properties in forming layers, the apical side of which is exposed only to air and that creates a mucin layer. Upon arrival, the cell transwell inserts were immediately transferred to individual wells of a 6-well plate according to manufacturer's instructions, and 1 mL of MatTek's proprietary culture medium (AIR-100-MM) was added to the basolateral side, whereas the apical side was exposed to a humidified 5% CO2 environment. Cells were cultured at 37° C. for one day before the start of the experiment. After the 24 hour equilibration period, the mucin layer, secreted from the apical side of the cells, was removed by washing with 400 μL pre-warmed 30 mM HEPES buffered saline solution 3×. Culture medium was replenished following the wash steps.
Viruses: Virus was diluted in AIR-100-MM medium before infection, yielding a multiplicity of infection (MOI) of approximately 0.0015 CCID50 per cell.
The cells were maintained at the air-liquid interface.
Determination of virus titers from each treated cell culture: Vero 76 cells were seeded in 96-well plates and grown overnight (37° C.) to confluence. Samples containing virus were diluted in 10-fold increments in infection medium and 200 μL of each dilution transferred into respective wells of a 96-well microtiter plate. Four microwells were used for each dilution to determine 50% viral endpoints. After 5 days of incubation, each well was scored positive for virus if any cytopathic effect (CPE) was observed as compared with the uninfected control and counts were confirmed for endpoint on days 6 and 7. […] The day 5 values were reported. Untreated, uninfected cells were used as the cell controls.
The antiviral activities of test compounds were evaluated against SARS-CoV-2 (USA-WA1/2020) using made to order human airway epithelial (HAE) cells.
Cell Culture: HAE cells were grown on 6 mm mesh disks and arrived in kits with either 12- or 24-well transwell inserts. During transportation the tissues were stabilized on a sheet of agarose, which was removed upon receipt. One insert was estimated to consist of approximately 1.2×10^6 cells. Kits of cell inserts (EpiAirway™ AIR-100 or AIR-112) originated from a single donor, #9831, a healthy, non-smoking person. The cells form polarized monolayers, the apical side of which is exposed to air and creates a mucin layer. Upon arrival, the cell transwell inserts were immediately transferred to individual wells of a 6-well plate according to the manufacturer's instructions, and 1 mL of MatTek's proprietary culture medium (AIR-100-MM) was added to the basolateral side, whereas the apical side was exposed to a humidified 5% CO2 environment. Cells were cultured at 37° C. in a humidified atmosphere containing 5% CO2 for one day before the start of the experiment. After the 24-h equilibration period, the mucin layer, secreted from the apical side of the cells, was removed by washing with 400 μL pre-warmed 30 mM HEPES buffered saline solution 3×. Culture medium was replenished following the wash steps.
Viruses: Virus was diluted in AIR-100-MM medium before infection to yield a MOI when added to cultures of approximately 0.0015 CCID50 per cell.
Select compounds of the present invention were tested in a SARS-CoV-2 assay. […]

MERS-CoV (EMC) = format: cell-based; details: MERS-CoV versus other CoVs
Huh7 cells = assay: Visual cytotoxicity in uninfected Huh7 cells; format: cell-based, human
Method: as §1

[6] = Plasma PK in non-human primates after oral Compound 2A; details: monkey plasma, oral Compound 2A 60 mg/kg then 30 mg/kg every 12 h, steady state
[7] = tested on: human airway epithelial (HAE) cells
[8] = tested on: human airway epithelial (HAE) cells; assay: Cytotoxicity in dNHBE / HAE cells by visual inspection; details: visual toxicity, Table 11

C[C@@]1(F)[C@H](O)[C@@H](COP(=O)(O)OP(=O)(O)OP(=O)(O)O)O[C@H]1n1cnc2c(=O)[nH]c(N)nc21 [Compound 1-6]
Mean Intracellular Compound 1-6 Concentration ([1]; 0 h): 236 µM
Mean Intracellular Compound 1-6 Concentration ([1]; 15 h): 204 µM
Mean Intracellular Compound 1-6 Concentration ([1]; 24 h): 170 µM
Mean Intracellular Compound 1-6 Concentration ([1]; 48 h): 107 µM
Mean Intracellular Compound 1-6 Concentration ([1]; 72 h): 73.8 µM
Mean Intracellular Compound 1-6 Concentration ([2]; 0 h): 698 µM
Mean Intracellular Compound 1-6 Concentration ([2]; 15 h): 560 µM
Mean Intracellular Compound 1-6 Concentration ([2]; 24 h): 462 µM
Mean Intracellular Compound 1-6 Concentration ([2]; 48 h): 290 µM
Mean Intracellular Compound 1-6 Concentration ([2]; 72 h): 217 µM
Mean Intracellular Compound 1-6 Concentration [3]: 0.089 µM
concentration at 24 h (in vivo): 32 nM

CNc1nc(N)nc2c1ncn2[C@@H]1O[C@H](CO[P@@](=O)(N[C@@H](C)C(=O)OC(C)C)Oc2ccccc2)[C@@H](O)[C@@]1(C)F [Compound 1A]
CC50 (RD cells): > 86000 nM
toxicity [4]: no toxicity was observed
EC50 [5]: 1000 nM
cytotoxicity (Huh-7 cells): No cytotoxicity was detected
CC50 (Huh-7 cells; human): > 50000 nM
replicate EC90 determinations (SARS-CoV-2 (WA1); SARS-CoV-2 (WA1) in dNHBE, single replicates): 0.41 µg/mL
EC90 (SARS-CoV-2 (WA1); SARS-CoV-2 in HAE (dNHBE) cells, Table 11, read-out: VYR Assay EC90): 460 nM and 520 nM
EC90 (SARS-CoV-2 (WA1); SARS-CoV-2 in HAE, footnotes f, g, h of Table 5, read-out: EC90, single replicates): 700 nM and 420 nM
EC90 (SARS-CoV-2 (WA1); Severe acute respiratory syndrome coronavirus 2, HAE, SARS-CoV-2 in HAE (dNHBE) cells, Table 11, read-out: VYR Assay EC90): 630 nM
difference of activity between MERS-CoV and other CoVs (MERS-CoV (EMC)): 30 fold
CC50 (Huh7 cells; Alpha-229E row): > 50000 nM
CC50 (Huh7 cells; Beta-OC43 row): > 50000 nM
AUC0-12 h [6]: 0.44 µM·h
Cmax [6]: 640 nM
T1/2 [6]: 44.4 min
Tmax [6]: 30 to 60 min
VYR Assay CC50 [7]: no visual tox no visual tox no visual tox

CCC(CC)COC(=O)[C@H](C)N[P@](=O)(OC[C@H]1O[C@@](C#N)(c2ccc3c(N)ncnn23)[C@H](O)[C@@H]1O)Oc1ccccc1 [Remdesivir]
VYR Assay CC50 [8]: no visual tox no visual tox no visual tox no visual tox
